Measurements as given in patent US4156731A, “Heterocyclic oxime compounds and carbamoyloxime derivatives” (priority 1976, dated 1979).

Assays:
[1] = Peroral toxicity to mammals (rat); settings: in vivo, po, mortality rate of 50 percent, read-out: A. O. Rat LD50
Protocol: Certain of these compositions were also evaluated to determine their peroral toxicity to mammals. The animal selected for this experiment was the rat.

[2] = tested on: Mexican bean beetle (Epilachna varivestis, Muls.); assay: Mexican Bean Beetle Leaf Spray Test; format: in vivo; design: key: A: Excellent control; B: Partial control; C: No control; settings: fourth instar larvae, 500 ppm leaf spray, three days
Protocol: (§1) Selected species of the new compounds were evaluated to determine their pesticidal activity against mites and certain insects, including anaphid, a caterpillar, a beetle and a fly.
(§2) Suspensions of the test compounds were prepared by dissolving one gram of compound in 50 milliliters of acetone in which had been dissolved 0.1 gram (10 percent of the weight of compound) of an alkylphenoxy polyethoxyethanol surfactant, as an emulsifying or dispersing agent. The resulting solution was mixed into 150 milliliters of water to give roughly 200 milliliters of a suspension containing the compound in finely divided form. The thus-prepared stock suspension contained 0.5 percent by weight of test compound. The test concentrations in parts per million by weight employed in the tests described hereinbelow were obtained by appropriate dilutions of the stock suspension with water. The test procedures were as follows:
Mexican Bean Beetle Leaf Spray Test
Fourth instar larvae of the Mexican bean beetle (Epilachna varivestis, Muls.), reared on Tendergreen bean plants at a temperature of 80°±5° F. and 50±5 per cent relative humidity, were the test insects.
The test compounds were formulated by diluting the stock suspension with water to give a suspension containing 500 parts of test compound per million parts of final formulation. Potted Tendergreen bean plants of standard height and age were placed on a revolving turntable and sprayed with 100-110 milliliters of test compound formulation by use of DeVilbiss spray gun set at 10 psig air pressure. This application, which lasted 25 seconds, was sufficient to wet plants to run-off. As a control, 100-110 milliliters of a water-acetone-emulsifier solution containing no test compound were also sprayed on infested plants. When dry, the paired leaves were separated and each was placed in a 9 centimeter Petri dish lined with moistened filter paper. Five randomly selected larvae were introduced into each dish, and the dishes were closed. The closed dishes were labeled and held at a temperature of […]. for three days. Although the larvae could easily consume the leaf within 24 to 48 hours, no more food was added. Larvae which were unable to move the length of the body, even upon stimulation, were considered dead.
(§3) In these tests the pesticidal activity of the compounds against aphid, mite, Southern Armyworm, Mexican Bean Beetle, and house fly was rated as follows: […]

[3] = tested on: bean aphid (Aphis fabae Scop.); assay: Bean Aphid Foliage Spray Test; format: in vivo; design: key: A: Excellent control; B: Partial control; C: No control; settings: 500 ppm foliage spray, 24 hour holding period
Protocol: as §1, §2
Bean Aphid Foliage Spray Test
Adults and nymphal stages of the bean aphid (Aphis fabae Scop.) reared on potted dwarf nasturtium plants at 65°-70° F. and 50-70 per cent relative humidity, constituted the test insects. For testing purposes, the number of aphids per pot was standardized to 100-150 by trimming plants containing excess aphids.
The test compounds were formulated by diluting the stock suspension with water to give a suspension containing 500 parts of test compound per million parts of final formulation.
The potted plants (one pot per compound tested) infested with 100-150 aphids, were placed on a revolving turntable and sprayed with 100-110 milliliters of test compound formulation by use of a DeVilbiss spray gun set at 40 psig. air pressure. This application, which lasted 25 seconds, was sufficient to wet the plants to run-off. As a control, 100-110 milliliters of a water-acetone-emulsifier solution containing no test compound were also sprayed on infested plants. After spraying, the pots were placed on their sides on a sheet of white standard mimeograph paper which had been previously ruled to facilitate counting. Temperature and humidity in the test room during the 24 hour holding period were 65°-70° F. and 50-70 per cent, respectively. Aphids which fell into the paper and were unable to remain standing after being uprighted were considered dead. Aphids remaining on the plants wre observed closely for movement and those which were unable to move the length of the body upon stimulator by prodding were considered dead. Per cent mortality was recorded for various concentration levels.
as §3

[4] = tested on: house flies (Musca domestica, L.); assay: Fly Bait Test; format: in vivo; design: key: A: Excellent control; B: Partial control; C: No control; settings: adults, 500 ppm in sugar bait, twenty four hours
Protocol: as §1, §2
Four to six day old adult house flies (Musca domestica, L.) reared according to the specifications of the Chemical Specialities Manufacturing Association (Blue Book, McNair-Dorland Co., NY., 1954; pages 234-244, 261) under controlled conditions of 80°±5° F. and 50±5 per cent relative humidity, were the test insects. The flies were immobilized by anesthetizing with carbon dioxide and twenty five immobilized individuals, males and females, were transferred to a cage consisting of a standard food stainer about five inches in diameter which was inverted over a wrapping-paper-covered surface. The test compounds were formulated by diluting the stock suspension with a 10 per cent (by weight) sugar solution to give a suspension containing 500 parts of test compound per million parts of final formulation, by weight. Ten milliliters of the test formulation were added to a souffle cup containing a one inch square of an absorbent cotton pad. This bait cup was introduced and centered on the blotting paper under the food strainer prior to admitting the anesthetized flies. The caged flies were allowed to feed on the bait for twenty four hours, at a temperature of 80°±5° F. and the relative humidity of 50±5 per cent.
as §3

[5] = tested on: two spotted mite (Tetranychus urticae Koch); assay: Mite Foliage Spray Test; format: in vivo; design: key: A: Excellent control; B: Partial control; C: No control; settings: 500 ppm foliage spray, six days
Protocol: as §1, §2
Adults and nymphal stages of the two spotted mite (Tetranychus urticae Koch), reared on Tendergreen bean plants at 80±5 per cent relative humidity, were the test organisms. Infested leaves from a stock culture were placed on the primary leaves of two bean plants six to eight inches in height, growing in a two-and-a-half inch clay pot. 150-200 mites, a sufficient number for testing, transferred from the excised leaves to the fresh plants in a period of twenty four hours. Following the twenty four hour transfer period, the excised leaves were removed from the infested plants. The test compounds were formulated by diluting the stock suspension with water to give a suspension with water to give a suspension containing 500 parts of test compound per million parts of final formulation. The potted plants (one pot per compound) were placed on a revolving turntable and sprayed with 100-110 milliliters of test compound formulation by use of a DeVilbiss spray gun set at 40 psig. air pressure. This application, which lasted for 25 seconds, was sufficient to wet the plants to run-off. As a control, 100-110 milliliters of a water solution containing acetone and emulsifier in the same concentrations as the test compound formulation, but containing no test compound, were also sprayed on infested plants. The sprayed plants were held at 80±5 per cent relative humidity for six days, after which a mortality count of motile forms were made. Microscopic examination for motile forms was made on the leaves of the test plants. Any individual which was capable of locomotion upon prodding, was considered living.
as §3

[6] = tested on: southern armyworm (Prodenia Eridania, (Cram.)); assay: Southern Armyworm Leaf Spray Test; format: in vivo; design: key: A: Excellent control; B: Partial control; C: No control; settings: larvae, 500 ppm leaf spray, three days
Protocol: as §1, §2
Southern Armyworm Leaf Spray Test
Larvae of the southern armyworm (Prodenia Eridania, (Cram.), reared on Tendergreen bean plants at a temperature of 80°±5° F. and a relative humidity of 50±5 per cent, constituted the test insects.
The test compounds were formulated by diluting the stock suspension with water to give a suspension containing 500 parts of test compound per million parts of final formulation. Potted Tendergreen bean plants of standard height and age were placed on a revolving turntable and sprayed with […] of test compound formulation by use of a DeVilbiss spray gun set at 10 psig. air pressure.
This application, which lasted 25 seconds, was sufficient to wet plants to run-off. As a control, 100-110 milliliters of a water-acetone-emulsifier solution containing no test compound were also sprayed on infested plants. When dry, the paired leaves were separated and each one was placed in a 9 centimeter Petric dish lined with moistened filter paper. Five randomly selected larvae were introduced into each dish and the dishes were closed. The closed dishes were labeled and held at 80°-85° F. for three days. Although the larvae could easily consume the whole leaf within twenty-four hours, no more food was added. Larvae which were unable to move the length of the body, even upon stimulation by prodding, were considered dead. Per cent mortality was recorded for various concentration levels.
as §3

SMILES	LD50 [1] [mg/kg]	Mexican Bean Beetle pesticidal activity rating [2]	Bean Aphid pesticidal activity rating [3]	House-Fly pesticidal activity rating [4]	Mite pesticidal activity rating [5]	Southern Armyworm pesticidal activity rating [6]
CNC(=O)ON=C1SC(=NC(C)(C)C)SC1(C)C [L]	31.5	A	A	A	A	B
CNC(=O)ON=C1SC(=NC(C)C)SC1(C)C [XLVII]	8.9	A	A	A	A	C
CC(C)N=C1SC(=NOC(=O)N(C)SC(Cl)(Cl)Cl)C(C)(C)S1 [XLVIII]	226	A	A	A	A	C
CN(SC(Cl)(Cl)Cl)C(=O)ON=C1SC(=C(C#N)C#N)SC1(C)C [LXIII]	538	A	A	C	C	C
CNC(=O)ON=C1SC(=NN(C)C)SC1(C)C [LV]	1.8	A	A	A	A	A
CCN=C1SC(=NOC(=O)NC)C(C)(C)S1 [XLVI]	6.3	A	A	A	C	B
CC(C)N=C1SC(=NOC(=O)N(C)SN(C)C(=O)ON=C2SC(=NC(C)C)SC2(C)C)C(C)(C)S1 [XLIV, N,N'-Bis-[[5,5-Dimethyl-2-isopropylimino-4-[O-(N-methylcarbamoyl)oximino]-1,3-dithiolane]] sulfide]	113	A	B	B	C	C
CN(SC(Cl)(Cl)Cl)C(=O)ON=C1SC(=NC#N)SC1(C)C [LXX]		C	C	C	C	C
